# Assay results as given in patent EP4772520A1, “NOVEL PRODRUG-TYPE ANTICANCER AGENT TARGETING CANCER-SPECIFIC ENZYME ACTIVITY” (priority 2023, dated 2025).
# What was measured:
# [1] = system: luciferase-expressing A549 cell; experiment: Therapeutic experiment in A549 peritoneal dissemination model; type: in vivo, mice
# Procedure: The therapeutic effect was verified using a peritoneal dissemination model using SN38-βGal. Whether the tumor suppression effect was confirmed was evaluated as compared with the Vehicle group (DMSO administration) by separating the SN38-βGal from the 10 mg/kg and 20 mg/kg administration groups.
# n = 3 for each group, and evaluation was performed on luciferase-expressing A549 cell peritoneal dissemination model mice using BALB/cAJcl-nu/nu. The administration form was intraperitoneal administration (i.p.), and continuous administration was performed for 40 days. Tumor burden was determined by evaluating luciferin/luciferase chemiluminescence. An endpoint was a time point at which significant body weight loss (20% loss) or intraperitoneal hemorrhage was found.
# A specific procedure of the therapeutic experiment is shown below. • (1) Luciferase expressing A549 cells 5 × 10^6 cells/mL (200 µL) was intraperitoneally administered to BALB/cAJcl-nu/nu (7 weeks old). • (2) After one week, the formation of peritoneal dissemination was confirmed by luciferin/luciferase chemiluminescence, and drug administration was started. 3 mg (200 µL) of luciferin was administered by intraperitoneal administration, and anesthetized with isoflurane. Thereafter, the chemiluminescent value at 20 minutes after administration was measured by an in vivo imaging device. The drug was prepared by dissolving a 100 mM of DMSO stock in PBS, and administered in a total amount of 100 µL. • (3) On the day of evaluation, the tumor burden was evaluated by luciferin/luciferase chemiluminescence. • (4) After completion of the treatment, gGlu-HMRG (10 µM, 500 µL PBS) was intraperitoneally administered, and 10 minutes later, the abdomen was opened, and the intestinal tract and the peritoneum were taken out. • (5) The seeded lesion was fluorescently imaged by an in vivo fluorescence imaging device, and comparison between the Vehicle and the administration group was performed.
# [2] = system: mouse Lewis lung cancer-derived cell line LLC (3LL); experiment: Combination experiment with anti-PD-1 antibody, LLC subcutaneous tumor model; type: in vivo, mice; conditions: anti-PD-1 antibody 100 µg i.p. twice a week, SN38-βGlcNAc 150 mg/kg i.v. three times a week
# Procedure: The effect of combination use of an anti-PD-1 antibody and SN38-βGlcNAc used as a main cancer immunotherapy in current lung cancer treatment was examined. Subcutaneous tumor model mice of a mouse Lewis lung cancer-derived cell line LLC (3LL) reported to have sensitivity to the anti-PD-1 antibody were evaluated, and the Vehicle (DMSO) group was n = 8, the anti-PD-1 antibody administration group was n = 5, the SN38-βGlcNAc administration group was n = 6, and the combination use group of the anti-PD-1 antibody and the SN38-βGlcNAc was n = 5. As an antibody, anti-mouse PD-1 antibody Clone RMP1-14 (Leinco Technologies, Inc.) was used. […]
# A specific procedure of the therapeutic experiment is shown below. • (1) Hair on the dorsal side from the upper part of the right foot of C57BL/6JJcl (7 weeks old, female) was shaved with a hair clipper, and then LLC cells 2.0 ×10^6 cells (50 µL) were subcutaneously injected. • (2) The drug administration was started to the individual whose tumor volume reached about 50 to 170 mm^3 after 6 days. […] The anti-PD-1 antibody (Clone RMP1-14) was administered by intraperitoneal administration of 100 µg dissolved in 100 µL of PBS. • (3) The body weight was measured on the day of evaluation, and the tumor volume was evaluated with a vernier caliper. • (4) The time point when the tumor volume reached 2000 to 3000 mm^3 was taken as the endpoint.
# [3] = system: primary lung squamous cell carcinoma PDX tumor (DLUN013/F_PDX_000162); experiment: Tumor proliferation suppression test in PDX model mice; type: in vivo; conditions: 200 mg/kg i.v., 6 times over 2 weeks
# Procedure: With respect to SN38-βGlcNAc showing high sensitivity by the organoid test, an in vivo tumor proliferation suppression test was performed using a primary lung squamous cell carcinoma PDX tumor (DLUN013/F_PDX_000162) established at Fukushima Medical University Medical and Industrial TR Center from the same patient. 200 mg/kg of SN38-βGlcNAc was intravenously administered to PDX subcutaneous tumor model mice a total of 6 times over 2 weeks as shown in the administration schedule (a of Fig. 30), and the tumor proliferation suppression effect was evaluated. The Vehicle (DMSO administration) group and the SN38-βGlcNAc administration group were n = 6, respectively.
# A specific procedure of the therapeutic experiment is shown below. • (1) The tube containing the frozen tumor tissue was thawed in a thermostatic water bath at 37°C. […] The SN38-βGlcNAc was prepared by dissolving a 400 mM of DMSO stock in PBS, and was intravenously administered from the tail vein 3 times a week for 2 weeks at a dose of 200 mg/kg with a total amount of 100 µL. • (5) The tumor volume and body weight were measured on the day of evaluation. • (6) The tumor was removed, and then subjected to fluorescence imaging using HMRef-βGlcNAc (50 µM, PBS solution) in the presence and absence of PUGNAc (500 µM), which is an inhibitor of β-hexosaminidase.
SMILES,"tumor suppression effect (luciferin/luciferase chemiluminescence) ([1]; 10 mg/kg and 20 mg/kg i.p., continuous administration for 40 days, vs Vehicle)",body weight ([1]; 10 mg/kg i.p. group),body weight ([1]; 20 mg/kg i.p. group),body weight [2],tumor proliferation suppression (tumor volume) ([2]; vs Vehicle),body weight change [3],"tumor proliferation suppression effect (tumor volume) ([3]; n = 6, vs Vehicle)"
CCc1c2c(nc3ccc(O[C@@H]4O[C@H](CO)[C@H](O)[C@H](O)[C@H]4O)cc13)-c1cc3c(c(=O)n1C2)COC(=O)[C@]3(O)CC [SN38-βGal],the therapeutic efficacy of SN38-βGal in peritoneal dissemination model mice was confirmed,there was almost no difference from the Vehicle,a slight body weight loss was found in the 20 mg/kg group by Day 10 of administration,–,–,–,–
CCc1c2c(nc3ccc(O[C@@H]4O[C@H](CO)[C@@H](O)[C@H](O)[C@H]4NC(C)=O)cc13)-c1cc3c(c(=O)n1C2)COC(=O)[C@]3(O)CC [SN38-βGlcNAc],–,–,–,no body weight loss was found in any group,showed tumor proliferation suppression,No body weight change was observed,the tumor growth was significantly suppressed
